Measured values taken from article PMC5733478, “A Non-imaging High Throughput Approach to Chemical Library Screening at the Unmodified Adenosine-A3 Receptor in Living Cells” (Frontiers in Pharmacology, 2017).
Structures can show the parent of a compound that is named as a salt. Where two headings read alike, the source gives them in different places.

Biological target: T1, human A3AR (Homo sapiens, UniProt P0DMS8)
T1 construct: expressed in transfected cells
T1 sequence (P0DMS8 1-318): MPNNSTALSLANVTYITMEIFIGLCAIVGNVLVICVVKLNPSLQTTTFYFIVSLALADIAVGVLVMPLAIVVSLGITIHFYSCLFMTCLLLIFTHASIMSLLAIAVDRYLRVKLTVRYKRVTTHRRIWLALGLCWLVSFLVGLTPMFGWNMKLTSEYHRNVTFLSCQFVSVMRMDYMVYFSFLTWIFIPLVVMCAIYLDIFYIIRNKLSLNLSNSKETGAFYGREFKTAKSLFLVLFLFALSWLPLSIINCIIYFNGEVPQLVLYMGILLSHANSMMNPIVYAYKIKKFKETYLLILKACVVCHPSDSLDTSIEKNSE
Test: LOPAC library primary screen: single concentration (10 μM) inhibition of 25 nM CA200645 binding, PHERAstar FS

[1] = % of control wells (1% DMSO and 25 nM CA200645), compounds at 10 µM, whole live cells expressing the A3AR, mean ± SD, three experiments in duplicate

| SMILES | % 25 nM CA200645 binding [%] | other results |
| --- | --- | --- |
| O=C1CN(/N=C/c2ccc(-c3ccc([N+](=O)[O-])cc3)o2)C(O)=N1 [Dantrolene sodium] | 94.8 ± 9.5 | – |
| CN1CCc2cccc3c2[C@H]1Cc1ccc(O)c(O)c1-3 [Apomorphine hydrochloride hemihydrate] | 95.0 ± 6.4 | – |
| Nc1ncnc2c1ncn2[C@@H]1O[C@H](COP(=O)(O)CP(=O)(O)OP(=O)([O-])[O-])[C@H](O)C1O.[Li+].[Li+] (stereo partly shown) | 102.3 ± 5.3 | – |
| Oc1ccc(/C=C/c2cc(O)cc(O)c2)cc1 [Resveratrol] | – | % 25 nM CA200645 binding [1]: 100.3 ± 16.3% |
| CCN(CC)C(=S)SSC(=S)N(CC)CC [Tetraethylthiuram disulfide] | 88.1 ± 9.2 | – |
| CCCCCN(CCCCC)C(=O)C(CCC(=O)O)NC(=O)c1ccc(Cl)c(Cl)c1 (stereo not shown) [Lorglumide sodium] | – | % 25 nM CA200645 binding [1]: 99.4 ± 5.5% |
| [Cl-].[Li+] [Lithium Chloride] | 99.9 ± 5.2 | – |
| CS(=O)(=O)c1cccc(CNc2nc(Nc3ccc4c(c3)CCC(=O)N4)ncc2C(F)(F)F)c1 [PF-573228] | 54.7 ± 30.2 | – |
| COc1ccc2cc([C@H](C)C(=O)[O-])ccc2c1.[Na+] [(-)-Naproxen sodium] | 97.8 ± 4.0 | – |
| Nc1ncnc2c1ncn2C1CCCC1 [9-cyclopentyladenine] | 102.2 ± 2.7 | – |
| Cl.Clc1cc(I)cc(Cl)c1NC1=NCCN1 [p-Iodoclonidine hydrochloride] | 77.2 ± 42.2 | – |
| O=C(O)Cc1ccccc1Nc1c(Cl)cccc1Cl [Diclofenac sodium] | 100.0 ± 12.4 | – |
| C#CCN[C@H](C)Cc1ccccc1.Cl [R-(-)-Desmethyldeprenyl hydrochloride] | 101.0 ± 11.7 | – |
| NC(=O)N1c2ccccc2C=Cc2ccccc21 [Carbamazepine] | 89.8 ± 14.0 | – |
| NCCCS(=O)(=O)O.[Na] [3-Amino-1-propanesulfonic acid sodium] | 96.5 ± 4.6 | – |
| NC(=O)c1ccccc1 [Benzamide] | 99.1 ± 4.7 | – |
| NCCCP(=O)(O)O [3-Aminopropylphosphonic acid] | 90.0 ± 2.1 | – |
| CN1[C@@H](CC(=O)c2ccccc2)CCC[C@H]1C[C@H](O)c1ccccc1.Cl [alpha-Lobeline hydrochloride] | 90.3 ± 6.6 | – |
| O=C(CCCN1CCC2(CC1)C(=O)NCN2c1ccccc1)c1ccc(F)cc1 [Spiperone hydrochloride] | 85.1 ± 18.3 | – |
| COc1cc(OC)c(C=C2C(O)=Nc3ccccc32)c(OC)c1 [IC 261] | 88.8 ± 5.2 | – |
| CN1CCC(=C2c3ccccc3CC(=O)c3sccc32)CC1 [Ketotifen fumarate] | 93.8 ± 4.0 | – |
| O=[N+]([O-])c1ccc2c(c1)S(=O)(=O)C=C2 [Stattic] | 107.3 ± 19.6 | – |
| O=C(/C=C/c1ccc(O)c(O)c1)OCCc1ccccc1 [Caffeic acid phenethyl ester] | 79.3 ± 10.7 | – |
| CO/N=C(\C(=O)N[C@@H]1C(=O)N2C(C(=O)O)=C(COC(C)=O)CS[C@H]12)c1csc(N)n1 [Cefotaxime sodium] | 94.2 ± 6.2 | – |

| SMILES | % 25 nM CA200645 binding [%] | other results |
| --- | --- | --- |
| O=C1Cc2cc(CCN3CCN(c4nsc5ccccc45)CC3)c(Cl)cc2N1 [Ziprasidone hydrochloride monohydrate] | 84.7 ± 3.4 | – |
| NC(CO)C(=O)NNCc1ccc(O)c(O)c1O (stereo not shown) [Benserazide hydrochloride] | 98.9 ± 5.3 | – |
| CC(=O)NC[C@H]1CN(c2ccc(N3CCOCC3)c(F)c2)C(=O)O1 [Linezolid] | 100.5 ± 2.1 | – |
| COc1cccc(C(=O)NCCN2CCN(c3ccc(Cl)cc3)CC2)c1 | 94.3 ± 6.0 | – |
| Cl.NC[C@@H]1O[C@H](C23CC4CC(CC(C4)C2)C3)Cc2c1ccc(O)c2O [A-77636 hydrochloride] | 87.3 ± 8.5 | – |
| COc1ccc(CCN(C)CCCC(C#N)(c2cc(OC)c(OC)c(OC)c2)C(C)C)cc1OC.Cl (racemic) [(±)-Methoxyverapamil hydrochloride] | 97.3 ± 10.6 | – |
| CC(=O)OC(C)C[N+](C)(C)C.[Cl-] (stereo not drawn) [Acetyl-beta-methylcholine chloride] | 91.4 ± 19.2 | – |
| Nc1cc(N2CCCCC2)nc(N)[n+]1[O-] [Minoxidil] | 96.7 ± 6.2 | – |
| CC(=O)CCCCn1c(=O)c2c(ncn2C)n(C)c1=O [Pentoxifylline] | 81.9 ± 17.4 | – |
| Cc1ccc([N+](=O)[O-])cc1S(=O)(=O)N(C)C [BRL 50481] | 82.8 ± 17.4 | – |
| COc1ccccc1N1CCN(CCN(C(=O)C2CCCCC2)c2ccccn2)CC1.O=C(O)/C=C\C(=O)O [WAY-100635 maleate] | 90.8 ± 17.8 | – |
| CC(C)(Oc1ccc(CCNC(=O)c2ccc(Cl)cc2)cc1)C(=O)O [Bezafibrate] | 93.0 ± 7.9 | – |
| CC(=O)c1ccc(S(=O)(=O)NC(=O)NC2CCCCC2)cc1 [Acetohexamide] | 101.4 ± 13.1 | – |
| CN[C@H]1CC[C@@H](c2ccc(Cl)c(Cl)c2)c2ccccc21 [Sertraline hydrochloride] | 101.1 ± 11.7 | – |
| Cc1ccc(O)c(N=Nc2ccccc2)n1 [SIB 1757] | 98.5 ± 4.5 | – |
| O=C(O)c1cc(O)cc(C(=O)O)n1 [Chelidamic acid] | 110.2 ± 8.8 | – |
| COC(=O)C1=C(C)NC(C)=C([N+](=O)[O-])C1c1ccccc1C(F)(F)F (racemic) [(±)-Bay K 8644] | 95.3 ± 3.4 | – |
| CC(=O)S[C@@H]1CC2=CC(=O)CC[C@]2(C)[C@H]2CC[C@@]3(C)[C@@H](CC[C@@]34CCC(=O)O4)[C@H]12 [Spironolactone] | 94.5 ± 9.9 | – |
| C[C@]12CCC(=O)C=C1CC[C@@H]1[C@@H]2C(=O)C[C@@]2(C)[C@H]1CC[C@]2(O)C(=O)CO [Cortisone] | 94.0 ± 5.3 | – |
| CCNC(=O)[C@H]1O[C@@H](n2cnc3c(N)nc(NCCc4ccc(CCC(=O)O)cc4)nc32)[C@H](O)[C@@H]1O [CGS 21680, reference compound] | – | hit in LOPAC primary screen (inhibited the binding of CA200645 by >40%): not identified as hits |
| O=C(O)/C=C/c1ccc(O)c(O)c1 [Caffeic Acid] | – | % 25 nM CA200645 binding [1]: 100.0 ± 4.2% |
| NCC(CC(=O)O)c1ccc(Cl)cc1 (racemic) [(±)-Baclofen] | 99.6 ± 6.9 | – |
| O=c1c2ccccc2nc2n1CCc1c-2[nH]c2ccccc12 [Rutaecarpine] | 34.3 ± 2.1 | – |
| CC(=O)N[C@@H](CS)C(=O)O [N-Acetyl-L-Cysteine] | 100.3 ± 0.2 | – |

| SMILES | % 25 nM CA200645 binding [%] | other results |
| --- | --- | --- |
| O=P(O)(O)C(Cl)(Cl)P(=O)(O)O [Clodronic acid] | 98.4 ± 3.5 | – |
| Cl.Cn1c(CCCC(=O)O)nc2cc(N(CCCl)CCCl)ccc21 [Bendamustine hydrochloride] | 97.6 ± 4.1 | – |
| Br.CN1Cc2sccc2C(c2ccc(O)c(O)c2)C1 (stereo not shown) [SKF-89145 hydrobromide] | 97.3 ± 9.6 | – |
| CC1CN(S(=O)(=O)c2cccc3cnccc23)CCN1.Cl.Cl (stereo not shown) | 95.4 ± 14.7 | – |
| Cl.NCC(O)c1cc(O)c(O)cc1F (stereo not shown) [6-Fluoronorepinephrine hydrochloride] | 77.6 ± 28.4 | – |
| CC(CCc1ccccc1)NCC(O)c1ccc(O)c(C(N)=O)c1 (stereo not shown) [Labetalol hydrochloride] | 97.5 ± 13.9 | – |
| O=C1C(SCCO)=C(SCCO)C(=O)c2ccccc21 [NSC 95397] | 96.3 ± 15.0 | – |
| Cl.Clc1ccc(Cn2c(CN3CCCC3)nc3ccccc32)cc1 [Clemizole hydrochloride] | 99.7 ± 8.2 | – |
| Oc1ccc(-c2nc(-c3ccncc3)c(-c3ccc(F)cc3)[nH]2)cc1 [SB 202190] | 68.5 ± 12.1 | – |
| COc1cc(/C=C(\C#N)C(=O)c2ccc(O)c(O)c2)cc(I)c1O [I-OMe-Tyrphostin AG 538] | 71.3 ± 34.4 | – |
| Clc1ccc(C(c2ccc(Cl)cc2)n2cc[n+](CC(OCc3ccc(Cl)cc3Cl)c3ccc(Cl)cc3Cl)c2)cc1 (stereo not shown) [Calmidazolium chloride] | 54.4 ± 19.1 | – |
| NC(=O)OCC(COC(N)=O)c1ccccc1 [Felbamate] | 98.7 ± 4.1 | – |
| CCCN(CC1CC1)c1nc(C)nc(Nc2c(Cl)cc(Cl)cc2Cl)c1Cl [NBI 27914] | 89.7 ± 7.0 | – |
| C[C@H](Cc1ccccc1)Nc1ncnc2c1ncn2[C@@H]1O[C@H](CO)[C@@H](O)[C@H]1O [R-PIA, reference compound] | – | hit in LOPAC primary screen (inhibited the binding of CA200645 by >40%): not identified as hits |
| NC(=O)c1ncn([C@@H]2O[C@H](CO)[C@@H](O)[C@H]2O)c1O [Mizoribine] | 101.6 ± 4.8 | – |
| CC1=C(C(=O)O)N2C(=O)[C@@H](NC(=O)[C@H](N)C3=CCC=CC3)[C@H]2SC1 [Cephradine] | 95.6 ± 1.1 | – |
| CCOC(=O)C1=C(C)NC(C)=C(C(=O)OC)C1c1cccc(Cl)c1Cl (stereo not shown) [Felodipine] | 79.1 ± 13.7 | – |
| O=C1C=CC(=O)C=C1 [p-Benzoquinone] | 85.9 ± 13.7 | – |
| CC(=O)OCC(CCn1cnc2cnc(N)nc21)COC(C)=O [Famciclovir] | 104.8 ± 9.2 | – |
| O=C(O)/C=C\C(=O)O.O=C1/C(=C/c2ccccc2)C[C@@]2(O)[C@H]3Cc4ccc(O)c5c4[C@@]2(CCN3CC2CC2)[C@H]1O5 [BNTX maleate salt hydrate] | 109.9 ± 5.7 | – |
| COC(=O)[C@H]1[C@H]2C[C@H]3c4[nH]c5ccccc5c4CCN3C[C@H]2CC[C@@H]1O [Rauwolscine hydrochloride] | 96.5 ± 8.7 | – |
| C[C@@H](c1ncncc1F)[C@](O)(Cn1cncn1)c1ccc(F)cc1F [Voriconazole] | 96.1 ± 10.4 | – |
